Assay results: article PMC6757277, “Structural Basis of Glycerophosphodiester Recognition by the Mycobacterium tuberculosis Substrate-Binding Protein UgpB” (ACS Chemical Biology, 2019)

Molecular target: Mtb UgpB (Mycobacterium tuberculosis, UniProt P71619)
Test: biochemical

Mtb UgpB, sequence (P71619 entry or part of it): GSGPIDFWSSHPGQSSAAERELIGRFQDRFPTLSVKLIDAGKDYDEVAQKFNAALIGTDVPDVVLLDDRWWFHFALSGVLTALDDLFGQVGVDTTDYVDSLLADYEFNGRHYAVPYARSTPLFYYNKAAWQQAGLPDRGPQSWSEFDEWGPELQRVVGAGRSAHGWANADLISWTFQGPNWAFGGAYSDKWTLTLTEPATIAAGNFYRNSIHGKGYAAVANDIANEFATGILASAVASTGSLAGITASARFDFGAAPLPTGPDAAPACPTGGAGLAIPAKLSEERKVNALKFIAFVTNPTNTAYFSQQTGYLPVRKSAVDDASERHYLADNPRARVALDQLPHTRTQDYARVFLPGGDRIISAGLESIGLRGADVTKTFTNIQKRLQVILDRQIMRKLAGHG

Row | Structure (SMILES) | Kd [µM]
1 | O=P(O)(OC[C@H](O)CO)O[C@@H]1[C@H](O)[C@H](O)[C@@H](O)[C@H](O)[C@H]1O [GPI, glycerophosphoinositol] | 1050 ± 313
2 | O=P(O)(O)O[C@H]1[C@H](O)[C@@H](O)[C@H](OP(=O)(O)OC[C@H](O)CO)[C@H](O)[C@@H]1O [GPI4P, glycerophosphoinositol-4-phosphate] | 290 ± 54.1
